Results: US12662451B2, “Chemical compounds and uses thereof” (GLAXOSMITHKLINE INTELLECTUAL PROPERTY (NO.4) LIMITED, priority 2023, dated 2026)
Structures can show the parent of a compound that is named as a salt.

Each molecule was assayed against T1, recombinant full-length WRN protein (1-1432) (Homo sapiens, UniProt Q14191) (assay: WRN unwinding activity, fluorogenic 384-well assay (Example A)). Conditions: WRN unwinding activity, 4 hr; Table 2; read-out: 4 hr UNW pIC50 (converted).
T1 construct: recombinant full-length WRN protein (1-1432)
Format: biochemical
How it was run: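 Read-out is end-point unwinding of a fluorophore/quencher duplex (ex 525, em 598 nm) after 60 min with 200 μM ATP and 12 nM DNA (2× stocks), EDTA stop. Compound first sat 4 h with 200 pM WRN (2× stock) in pH 8.0 Tris buffer; four-parameter fit gives pIC50.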

T1 sequence (Q14191 whole entry): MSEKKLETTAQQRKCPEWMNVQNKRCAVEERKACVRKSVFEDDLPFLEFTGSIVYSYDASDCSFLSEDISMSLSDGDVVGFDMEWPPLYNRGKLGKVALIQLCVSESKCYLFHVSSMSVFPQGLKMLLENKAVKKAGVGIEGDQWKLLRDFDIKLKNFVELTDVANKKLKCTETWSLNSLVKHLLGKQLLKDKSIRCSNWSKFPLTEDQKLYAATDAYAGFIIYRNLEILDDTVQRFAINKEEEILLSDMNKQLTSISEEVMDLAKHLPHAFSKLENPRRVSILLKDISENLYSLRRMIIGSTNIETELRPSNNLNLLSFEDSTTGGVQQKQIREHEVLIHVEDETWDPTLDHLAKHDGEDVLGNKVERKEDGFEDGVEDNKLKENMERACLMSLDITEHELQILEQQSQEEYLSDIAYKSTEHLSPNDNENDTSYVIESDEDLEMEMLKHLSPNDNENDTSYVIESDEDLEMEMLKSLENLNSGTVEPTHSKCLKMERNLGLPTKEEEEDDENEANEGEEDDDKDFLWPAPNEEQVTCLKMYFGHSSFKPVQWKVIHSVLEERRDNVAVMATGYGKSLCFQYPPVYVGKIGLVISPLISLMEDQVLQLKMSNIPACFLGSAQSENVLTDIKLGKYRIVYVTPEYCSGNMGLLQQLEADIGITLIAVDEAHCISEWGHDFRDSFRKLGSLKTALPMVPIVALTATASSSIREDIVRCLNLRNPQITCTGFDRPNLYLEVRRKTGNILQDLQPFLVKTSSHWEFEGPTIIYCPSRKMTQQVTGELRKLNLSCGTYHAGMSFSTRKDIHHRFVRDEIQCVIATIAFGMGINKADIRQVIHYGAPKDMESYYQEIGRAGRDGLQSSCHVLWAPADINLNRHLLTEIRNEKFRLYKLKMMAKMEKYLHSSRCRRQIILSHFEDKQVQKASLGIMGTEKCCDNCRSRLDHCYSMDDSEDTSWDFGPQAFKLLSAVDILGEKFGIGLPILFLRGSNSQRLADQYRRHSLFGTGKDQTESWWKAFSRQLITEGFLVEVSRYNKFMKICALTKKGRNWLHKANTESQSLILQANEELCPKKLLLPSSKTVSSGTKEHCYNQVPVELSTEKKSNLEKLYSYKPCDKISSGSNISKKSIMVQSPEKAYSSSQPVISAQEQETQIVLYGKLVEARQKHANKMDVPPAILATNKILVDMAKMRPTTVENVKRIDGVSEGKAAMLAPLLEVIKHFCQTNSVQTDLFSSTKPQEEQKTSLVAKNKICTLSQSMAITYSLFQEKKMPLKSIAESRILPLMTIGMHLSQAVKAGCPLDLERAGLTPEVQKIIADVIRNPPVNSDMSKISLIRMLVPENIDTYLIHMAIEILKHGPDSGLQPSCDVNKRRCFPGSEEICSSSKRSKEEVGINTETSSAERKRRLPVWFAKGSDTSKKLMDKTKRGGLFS

Row | IC50 [nM] | SMILES
1 | 79.4 | O=C(O)[C@@H]1[C@@H](c2ccc(C(F)(F)F)cc2)CCC[C@H]1C(=O)Nc1ccc(C(F)(F)F)cc1F (racemic) [Example 247, rac-(1R,2R,6S)-2-((2-fluoro-4-(trifluoromethyl)phenyl)carbamoyl)-6-(4-(trifluoromethyl)phenyl)cyclohexane-1-carboxylic acid]
2 | 251 | Cc1nc2cc(S(=O)(=O)N(C)c3ccc([C@H]4CCC[C@H](C(=O)Nc5ccc(C(C)C)cc5)[C@@H]4C(=O)O)cc3)ccc2n1C (single isomer, unassigned) [Example 74]
3 | 63.1 | Cc1ncccc1-c1ccc([C@H]2CCC[C@@H](C(=O)Nc3ccc(C(F)(F)F)cc3F)[C@@H]2C(=O)O)cc1 [Example 13, (1R,2R,6S)-2-((2-fluoro-4-(trifluoromethyl)phenyl)carbamoyl)-6-(4-(2-methylpyridin-3-yl)phenyl)cyclohexane-1-carboxylic acid, formic acid salt]
4 | 100 | O=C(O)[C@@H]1[C@@H](c2ccc(C3=CCOC3)cc2)CCC[C@H]1C(=O)Nc1ccc(C(F)(F)F)cc1F [Example 57, (1R,2S,6R)-2-(4-(2,5-dihydrofuran-3-yl)phenyl)-6-((2-fluoro-4-(trifluoromethyl)phenyl)carbamoyl) cyclohexane-1-carboxylic acid]
5 | 501 | Cc1nc2cc(S(=O)(=O)N(C)c3ccc([C@H]4CCC[C@@H](C(=O)Nc5ccc(C(C)C)cc5)[C@@H]4C(=O)O)cc3)ccc2n1C (single isomer, unassigned) [Example 79]
6 | 6310 | O=C(O)[C@@H]1[C@@H](c2ccc(C3CC3)cc2)CCC[C@H]1C(=O)Nc1ccc(C(F)(F)F)cc1F [Example 69, (1R,2S,6R)-2-(4-cyclopropylphenyl)-6-((2-fluoro-4-(trifluoromethyl)phenyl)carbamoyl)cyclohexane-1-carboxylic acid]
7 | 3980 | CCCO[C@@H]1C[C@H](C(=O)Nc2ccc(C(F)(F)F)cc2F)[C@@H](C(=O)O)[C@H](c2ccc(N(C)S(=O)(=O)c3ccc4c(c3)nc(C)n4C)cc2)C1 (stereo in doubt) [Example 150, rel-(1R,2R,4R,6S)-2-((2-fluoro-4-(trifluoromethyl)phenyl)carbamoyl)-4-propoxy-6-(4-((N,1,2-trimethyl-1H-benzo[d]imidazole)-5-sulfonamido)phenyl)cyclohexane-1-carboxylic acid]
8 | 316 | O=C(O)[C@@H]1[C@@H](c2ccc(C3CCS(=O)(=O)C3)cc2)CCC[C@H]1C(=O)Nc1ccc(C(F)(F)F)cc1F (single isomer, unassigned) [Example 231, (1R,2S,6R)-2-(4-((R*)-1,1-dioxidotetrahydrothiophen-3-yl)phenyl)-6-((2-fluoro-4-(trifluoromethyl)phenyl)carbamoyl)cyclohexane-1-carboxylic acid]
9 | 25100 | Cc1nc2cc(S(=O)(=O)N(C)c3ccc([C@H]4CCC[C@@H](CN5CC6(C5)CC(F)(F)C6)[C@@H]4C(=O)O)cc3)ccc2n1C (racemic) [Example 201, rac-(1R,2R,6S)-2-((6,6-difluoro-2-azaspiro[3.3]heptan-2-yl)methyl)-6-(4-((N,1,2-trimethyl-1H-benzo[d]imidazole)-5-sulfonamido)phenyl)cyclohexane-1-carboxylic acid]
10 | 7940 | Cc1nc2cc(S(=O)(=O)N(C)c3ccc([C@H]4CCC[C@@H](C(=O)Nc5ccc(C(F)(F)F)cn5)[C@@H]4C(=O)O)cc3)ccc2n1C (single isomer, unassigned) [Example 169]
11 | 20 | Cc1nc2cc(S(=O)(=O)N(C)c3ccc([C@@H]4CCC[C@H](C(=O)Nc5ccc(C(F)(F)F)cc5F)[C@H]4C(=O)O)cc3C#N)ccc2n1C (relative stereo) [Example 163, rel-(1R,2S,6R)-2-(3-cyano-4-((N,1,2-trimethyl-1H-benzo[d]imidazole)-5-sulfonamido)phenyl)-6-((2-fluoro-4-(trifluoromethyl)phenyl)carbamoyl)cyclohexane-1-carboxyl c acid]
